Measured values taken from patent US20110237455A1, “ARRAY ANALYSIS FOR ONLINE DETECTION” (EPPENDORF AG, priority 2010, published 2011).
“Also recorded” adds a separate entry of the source.

Columns and labels:
[1] = test system: SuperSalt Taq Polymerase; assay: Compatibility of dyes with PCR amplification (no inhibition of the PCR); format: biochemical; conditions: highest tested concentration which did not inhibit the PCR
Experimental: The Table gives the upper concentration of the agent at which there is no inhibition of the PCR. Two concentrations of Taq polymerase were compared: 5 and 10 units. Experimental details are given in example 3.
PCR was designed for the amplification of the 35 promoter element of DNA sample of a genetically modified organism (GMO).
For each tested light absorbing agent, PCR were performed with different concentrations of agent: 0.005, 0.01, 0.02, 0.05, 0.1, 0.5, 1 and 2% and either 5 U or 10 U of Taq polymerase in PCR mix. Controls tubes were performed without light absorbing agent with 5 U or 10 U of enzyme.
The PCR performed in PCR tubes in a thermocycler (Eppendorf, Hamburg, Germany). Samples were pre incubated for 10 min at 25° C. and then were first denatured at 94° C. for 3 min. Then 40 cycles of amplification were performed consisting of 30 sec at 95° C., 90 sec at 60° C. and 30 sec at 72° C.
After PCR, 1 μL of the PCR product was analyzed by electrophoresis (Agilent Technologies, 2100 Bioanalyzer). The expected size of the amplicon was 79 bp.

[2] = Absorbance spectrum of light absorbing agents; format: physicochemical; conditions: light absorbing agent at 1%; for Absorbance spectrum (estimated min-max): estimated width of band covering around 90% of the dye absorbance
Description: (§1) Table 1 summarizes the properties of different light absorbing agents tested according to the invention. The Table presents the absorbance peak and the estimated width of the absorbance band, based on the experimental spectra covering around 90% of the dye absorbance. The intrinsic fluorescence of the agents at the emission wavelength of 570 nm (green channel) or at the emission of 666 nm (red channel) is indicated. Intrinsic fluorescence is expressed as the percentage of the fluorescence compared to cy3 fluorescence if present at 1 μM for green channel (=100%) or Oyster645 fluorescence if present at 1 μM for red channel (=100%). Experimental details are given in example 4.

[3] = Intrinsic fluorescence of light absorbing agents at the emission wavelengths (green/red channel); format: physicochemical; conditions: for Intrinsic fluorescence (emission 666 nm) in % / Intrinsic fluorescence (emission 570 nm) in %: agent at 1%; for Intrinsic fluorescence (emission 666 nm) in %: compared to Oyster645 fluorescence at 1 μM (=100%); for Intrinsic fluorescence (emission 570 nm) in % / Fluorescence at the emission wavelength of 570 nm (in words): green channel; for Intrinsic fluorescence (emission 570 nm) in %: compared to cy3 fluorescence at 1 μM (=100%)
Description: This concept is exemplified in Table 1. The dye Azure A is a good example. It can be used for the reduction of the fluorescence of a solution at the excitation/emission wavelength of 532/570 (green channel). […] However, the dye is fluorescent at the emission wavelength of 666 nm used in the red channel.
The dye Azure A is thus not capable of reducing the fluorescent of the solution beyond the intrinsic fluorescence of the light absorbing agent at the emission wavelength in the red channel. In presence of this agent, the fluorescence is about 38% (data not shown) the fluorescence value of the solution in the absence of light absorbing agent (=100%).
as §1

Compound | Maximum concentration in PCR (%) with 5 U Taq polymerase [1] | Maximum concentration in PCR (%) with 10 U Taq polymerase [1] | Absorbance spectrum peak [2] | Absorbance spectrum (estimated min-max) [2] | Intrinsic fluorescence (emission 666 nm) in % ([3]; red channel) | Fluorescence at the emission wavelength of 666 nm (in words) ([3]; red channel) | Intrinsic fluorescence (emission 570 nm) in % [3] | Fluorescence at the emission wavelength of 570 nm (in words) [3] | Fluorescence of the solution in presence of the agent ([3]; red channel, solution without light absorbing agent = 100%, data not shown)
Black Intense [(A) Black Intense] | 0.05% | 0.1% | 565 nm | <400-675 | – | – | – | – | –
CC(=O)Nc1ccc(S(=O)(=O)[O-])c2cc(S(=O)(=O)[O-])c(N=Nc3ccc(N=Nc4ccc(S(=O)(=O)[O-])cc4)c4ccc(S(=O)(=O)[O-])cc34)c(O)c12.[Na+].[Na+].[Na+].[Na+] [(J) Black Brilliant, Black Brilliant] | 0.05% | 0.1% | 571 nm | 475-670 | – | – | – | – | –
Blue Dextran [(B) Blue Dextran] | 0.5% | 1% | – | – | – | – | – | – | –
Blue Intense [(K) Blue Intense] | 0.05% | 0.1% | 635 nm | 525-690 | 47% | fluorescent | – | – | –
O=S(=O)([O-])c1cc(S(=O)(=O)[O-])c2c(N=Nc3ccc(S(=O)(=O)[O-])c4ccccc34)c(O)ccc2c1.[Na+].[Na+].[Na+] [(G) E124, E124] | – | – | 508 nm | <400-585 | 18% | fluorescent | 18% | fluorescent | –
O=C1/C(=C2\Nc3ccc(S(=O)(=O)[O-])cc3C2=O)Nc2ccc(S(=O)(=O)[O-])cc21.[Na+].[Na+] [(C) E132, E132] | 0.05% | – | 609 nm | 525-675 | – | – | – | – | –
Ferritin [(H) Ferritin] | – | – | (no peak) | below 500 | 15% | fluorescent | 40% | fluorescent | –
Melanine [(M) Melanine] | – | – | – | below 700 | – | – | – | – | –
CCN(Cc1cccc(S(=O)(=O)[O-])c1)c1ccc(C(=C2C=CC(=[N+](CC)Cc3cccc(S(=O)(=O)[O-])c3)C=C2)c2ccccc2S(=O)(=O)[O-])cc1.[Na+].[Na+] [(L) E133, E133] | 0.05% | 0.1% | 635 nm | 525-690 | 33% | shows a basal fluorescence; also recorded: fluorescent | – | – | –
Brilliant Blue [(F) Brilliant Blue] | – | – | 585 nm | 500-690 | – | – | – | – | –
CN(C)c1ccc2nc3ccc(N)cc3[s+]c2c1.[Cl-] [(E) Azure A, Azure A] | – | – | 636 nm | 450-700 | 38% | fluorescent | – | does not fluoresce | about 38%
